Numbers after ± are expanded uncertainties.
Legend:
[1] = Liquid; for viscosity: Capillary tube (Ostwald / Ubbelohde) method; for speed of sound: Linear variable-path acoustic interferometer
[2] = xn = mol fraction of the nth substance listed; conditions: 101 kPa, Liquid; for viscosity: Capillary tube (Ostwald / Ubbelohde) method; for speed of sound: Linear variable-path acoustic interferometer

Compound | viscosity ([1]; 288.15 K, 101 kPa) [mPa·s] | speed of sound ([1]; 288.15 K, 101 kPa) [m/s] | viscosity ([1]; 298.15 K, 101.33 kPa) [mPa·s] | speed of sound ([1]; 298.15 K, 101.33 kPa) [m/s] | viscosity ([1]; 308.15 K, 101.33 kPa) [mPa·s] | speed of sound ([1]; 308.15 K, 101.33 kPa) [m/s] | viscosity ([1]; 318.15 K, 101.33 kPa) [mPa·s] | speed of sound ([1]; 318.15 K, 101.33 kPa) [m/s] | viscosity ([2]; 288.15 K, x1 = 1) [mPa·s] | speed of sound ([2]; 288.15 K, x1 = 1) [m/s] | viscosity ([2]; 298.15 K, x1 = 1) [mPa·s] | speed of sound ([2]; 298.15 K, x1 = 1) [m/s] | viscosity ([2]; 308.15 K, x1 = 1) [mPa·s] | speed of sound ([2]; 308.15 K, x1 = 1) [m/s] | viscosity ([2]; 318.15 K, x1 = 1) [mPa·s] | speed of sound ([2]; 318.15 K, x1 = 1) [m/s] | also measured
Cc1ccccc1C [1,2-dimethylbenzene] | 0.8623 ± 0.0061 | 1388.5 ± 1.7 | 0.7576 ± 0.0053 | 1350.3 ± 1.6 | 0.669 ± 0.0048 | 1321.4 ± 1.6 | 0.5972 ± 0.0043 | 1285.8 ± 1.6 |  |  |  |  |  |  |  |  | 
Cc1cc(C)cc(C)c1 [1,3,5-trimethylbenzene] | 0.7592 ± 0.0056 | 1412.3 ± 1.7 | 0.6572 ± 0.0049 | 1369.8 ± 1.7 | 0.5792 ± 0.0044 | 1325.2 ± 1.7 | 0.5066 ± 0.004 | 1279 ± 1.6 |  |  |  |  |  |  |  |  | 
Cc1cccc(C)c1 [1,3-dimethylbenzene] | 0.6696 ± 0.0048 | 1373.2 ± 1.7 | 0.588 ± 0.0043 | 1326.6 ± 1.6 | 0.5229 ± 0.0039 | 1281 ± 1.6 | 0.4684 ± 0.0036 | 1243 ± 1.5 |  |  |  |  |  |  |  |  | 
Cc1ccc(C)cc1 [1,4-dimethylbenzene] | 0.7084 ± 0.0051 | 1357.5 ± 1.7 | 0.611 ± 0.0044 | 1316.4 ± 1.6 | 0.5501 ± 0.004 | 1268 ± 1.6 | 0.4912 ± 0.0037 | 1230.3 ± 1.5 |  |  |  |  |  |  |  |  | 
c1ccccc1 [benzene] | 0.693 ± 0.0049 | 1352.4 ± 1.6 | 0.6025 ± 0.0043 | 1303.5 ± 1.6 | 0.5395 ± 0.004 | 1257.4 ± 1.5 | 0.467 ± 0.0036 | 1207.2 ± 1.5 |  |  |  |  |  |  |  |  | 
c1ccccc1 [benzene] + C1CCOC1 |  |  |  |  |  |  |  |  |  |  |  |  |  |  |  |  | viscosity ([2]; 288.15 K, x2 = 0): 0.693 ± 0.0049 mPa·s; speed of sound ([2]; 288.15 K, x2 = 0): 1352.4 ± 1.6 m/s; viscosity ([2]; 298.15 K, x2 = 0): 0.6025 ± 0.0044 mPa·s; speed of sound ([2]; 298.15 K, x2 = 0): 1303.5 ± 1.6 m/s; viscosity ([2]; 308.15 K, x2 = 0): 0.5395 ± 0.004 mPa·s; speed of sound ([2]; 308.15 K, x2 = 0): 1257.4 ± 1.5 m/s; viscosity ([2]; 318.15 K, x2 = 0): 0.467 ± 0.0037 mPa·s; speed of sound ([2]; 318.15 K, x2 = 0): 1207.2 ± 1.5 m/s
C1CCOC1 [tetrahydrofuran] | 0.5129 ± 0.0039 | 1323.1 ± 1.6 | 0.458 ± 0.0035 | 1276.6 ± 1.6 | 0.4125 ± 0.0032 | 1231.7 ± 1.6 | 0.3762 ± 0.003 | 1186.4 ± 1.5 |  |  |  |  |  |  |  |  | speed of sound ([1]; 298.15 K, 101 kPa): 1277.6 ± 1.6 m/s; speed of sound ([1]; 308.15 K, 101 kPa): 1231.5 ± 1.6 m/s; speed of sound ([1]; 318.15 K, 101 kPa): 1187.2 ± 1.5 m/s
C1CCOC1 [tetrahydrofuran] + Cc1cc(C)cc(C)c1 |  |  |  |  |  |  |  |  | 0.5129 ± 0.0039 | 1323.1 ± 1.6 | 0.458 ± 0.0036 | 1277.6 ± 1.6 | 0.4125 ± 0.0033 | 1231.5 ± 1.6 | 0.3762 ± 0.0031 | 1187.2 ± 1.5 | 
C1CCOC1 [tetrahydrofuran] + Cc1ccc(C)cc1 |  |  |  |  |  |  |  |  | 0.5129 ± 0.0039 | 1323.1 ± 1.6 | 0.458 ± 0.0036 | 1277.6 ± 1.6 | 0.4125 ± 0.0033 | 1231.5 ± 1.6 | 0.3762 ± 0.0031 | 1187.2 ± 1.5 | 
C1CCOC1 [tetrahydrofuran] + Cc1cccc(C)c1 |  |  |  |  |  |  |  |  | 0.5129 ± 0.0039 | 1323.1 ± 1.6 | 0.458 ± 0.0036 | 1277.6 ± 1.6 | 0.4125 ± 0.0033 | 1231.5 ± 1.6 | 0.3762 ± 0.0031 | 1187.2 ± 1.5 | 
C1CCOC1 [tetrahydrofuran] + Cc1ccccc1C |  |  |  |  |  |  |  |  | 0.5129 ± 0.0039 | 1323.1 ± 1.6 | 0.458 ± 0.0036 | 1277.6 ± 1.6 | 0.4125 ± 0.0033 | 1231.5 ± 1.6 | 0.3762 ± 0.0031 | 1187.2 ± 1.5 | 
Cc1ccccc1 [toluene] | 0.6456 ± 0.0046 | 1358.5 ± 1.6 | 0.5531 ± 0.0039 | 1310.5 ± 1.6 | 0.502 ± 0.0037 | 1266.2 ± 1.5 | 0.4379 ± 0.0034 | 1221 ± 1.5 |  |  |  |  |  |  |  |  | 
Cc1ccccc1 [toluene] + C1CCOC1 |  |  |  |  |  |  |  |  |  |  |  |  |  |  |  |  | viscosity ([2]; 288.15 K, x2 = 0): 0.6456 ± 0.0047 mPa·s; speed of sound ([2]; 288.15 K, x2 = 0): 1358.5 ± 1.6 m/s; viscosity ([2]; 298.15 K, x2 = 0): 0.5531 ± 0.0041 mPa·s; speed of sound ([2]; 298.15 K, x2 = 0): 1310.5 ± 1.6 m/s; viscosity ([2]; 308.15 K, x2 = 0): 0.502 ± 0.0037 mPa·s; speed of sound ([2]; 308.15 K, x2 = 0): 1266.2 ± 1.5 m/s; viscosity ([2]; 318.15 K, x2 = 0): 0.4379 ± 0.0035 mPa·s; speed of sound ([2]; 318.15 K, x2 = 0): 1221 ± 1.5 m/s

Reference: the NIST ThermoML archive (doi:10.1016/j.fluid.2007.07.016)
